Test results: ChEMBL document CHEMBL4507266, “Data for DCP probe BAY-784” (2021)

Columns and labels:
[1] = molecular target: Tyrosine-protein kinase receptor TYRO3 (Homo sapiens) (UniProt Q06418); settings: Compound concentration 1000.0 nM
[2] = molecular target: Mitogen-activated protein kinase kinase kinase kinase 5 (Homo sapiens) (UniProt Q9Y4K4); settings: Compound concentration 1000.0 nM
[3] = molecular target: Calcium/calmodulin-dependent protein kinase type 1B (Homo sapiens) (UniProt Q6P2M8); settings: Compound concentration 1000.0 nM
[4] = molecular target: Receptor tyrosine-protein kinase erbB-4 (Homo sapiens) (UniProt Q15303); settings: Compound concentration 1000.0 nM
[5] = molecular target: Interferon-induced, double-stranded RNA-activated protein kinase (Homo sapiens) (UniProt P19525); settings: Compound concentration 1000.0 nM
[6] = molecular target: Protein kinase C iota type (Homo sapiens) (UniProt P41743); settings: Compound concentration 1000.0 nM
[7] = molecular target: Misshapen-like kinase 1 (Homo sapiens) (UniProt Q8N4C8); settings: Compound concentration 1000.0 nM
[8] = molecular target: Myosin-IIIb (Homo sapiens) (UniProt Q8WXR4); settings: Compound concentration 1000.0 nM
[9] = molecular target: Serine/threonine-protein kinase PknB (Mycobacterium tuberculosis) (UniProt P9WI81); settings: Compound concentration 1000.0 nM
[10] = molecular target: Ephrin type-B receptor 3 (Homo sapiens) (UniProt P54753); settings: Compound concentration 1000.0 nM
[11] = molecular target: Ephrin type-A receptor 5 (Homo sapiens) (UniProt P54756); settings: Compound concentration 1000.0 nM
[12] = molecular target: Phosphatidylinositol 4,5-bisphosphate 3-kinase catalytic subunit delta isoform (Homo sapiens) (UniProt O00329); settings: Compound concentration 1000.0 nM
[13] = molecular target: Serine/threonine-protein kinase pim-2 (Homo sapiens) (UniProt Q9P1W9); settings: Compound concentration 1000.0 nM
[14] = molecular target: G protein-coupled receptor kinase 4 (Homo sapiens) (UniProt P32298); settings: Compound concentration 1000.0 nM
[15] = molecular target: Vascular endothelial growth factor receptor 1 (Homo sapiens) (UniProt P17948); settings: Compound concentration 1000.0 nM
[16] = molecular target: Mitogen-activated protein kinase 14 (Homo sapiens) (UniProt Q16539); settings: Compound concentration 1000.0 nM
[17] = system: Mast/stem cell growth factor receptor Kit (Homo sapiens), P10721 [L576P]; settings: Compound concentration 1000.0 nM
[18] = system: Tyrosine-protein kinase ABL1 (Homo sapiens), P00519 [T315I]; settings: Compound concentration 1000.0 nM
[19] = molecular target: Homeodomain-interacting protein kinase 4 (Homo sapiens) (UniProt Q8NE63); settings: Compound concentration 1000.0 nM
[20] = molecular target: Mitogen-activated protein kinase kinase kinase 1 (Homo sapiens) (UniProt Q13233); settings: Compound concentration 1000.0 nM
[21] = molecular target: Ephrin type-B receptor 2 (Homo sapiens) (UniProt P29323); settings: Compound concentration 1000.0 nM
[22] = molecular target: Testis-specific serine/threonine-protein kinase 3 (Homo sapiens) (UniProt Q96PN8); settings: Compound concentration 1000.0 nM
[23] = molecular target: Tyrosine-protein kinase Fes/Fps (Homo sapiens) (UniProt P07332); settings: Compound concentration 1000.0 nM
[24] = molecular target: Ribosomal protein S6 kinase alpha-1 (Homo sapiens) (UniProt Q15418); settings: Compound concentration 1000.0 nM
[25] = molecular target: Serine/threonine-protein kinase tousled-like 2 (Homo sapiens) (UniProt Q86UE8); settings: Compound concentration 1000.0 nM
[26] = molecular target: Serine/threonine-protein kinase PAK 5 (Homo sapiens) (UniProt Q9P286); settings: Compound concentration 1000.0 nM
[27] = molecular target: Inhibitor of nuclear factor kappa-B kinase subunit alpha (Homo sapiens) (UniProt O15111); settings: Compound concentration 1000.0 nM
[28] = molecular target: MAP/microtubule affinity-regulating kinase 3 (Homo sapiens) (UniProt P27448); settings: Compound concentration 1000.0 nM
[29] = molecular target: G protein-coupled receptor kinase 3 (Homo sapiens) (UniProt P35626); settings: Compound concentration 1000.0 nM
[30] = system: Phosphatidylinositol 4,5-bisphosphate 3-kinase catalytic subunit alpha isoform (Homo sapiens), P42336 [I800L]; settings: Compound concentration 1000.0 nM
[31] = molecular target: BMP-2-inducible protein kinase (Homo sapiens) (UniProt Q9NSY1); settings: Compound concentration 1000.0 nM
[32] = molecular target: Wee1-like protein kinase (Homo sapiens) (UniProt P30291); settings: Compound concentration 1000.0 nM
[33] = molecular target: Calcium/calmodulin-dependent protein kinase type II subunit gamma (Homo sapiens) (UniProt Q13555); settings: Compound concentration 1000.0 nM
[34] = molecular target: Citron Rho-interacting kinase (Homo sapiens) (UniProt O14578); settings: Compound concentration 1000.0 nM
[35] = molecular target: AP2-associated protein kinase 1 (Homo sapiens) (UniProt Q2M2I8); settings: Compound concentration 1000.0 nM
[36] = molecular target: Myosin-IIIa (Homo sapiens) (UniProt Q8NEV4); settings: Compound concentration 1000.0 nM
[37] = molecular target: T1, Alpha-2B adrenergic receptor (Homo sapiens) (UniProt P18089); settings: Compound concentration 10.0 uM
T1 sequence (whole entry): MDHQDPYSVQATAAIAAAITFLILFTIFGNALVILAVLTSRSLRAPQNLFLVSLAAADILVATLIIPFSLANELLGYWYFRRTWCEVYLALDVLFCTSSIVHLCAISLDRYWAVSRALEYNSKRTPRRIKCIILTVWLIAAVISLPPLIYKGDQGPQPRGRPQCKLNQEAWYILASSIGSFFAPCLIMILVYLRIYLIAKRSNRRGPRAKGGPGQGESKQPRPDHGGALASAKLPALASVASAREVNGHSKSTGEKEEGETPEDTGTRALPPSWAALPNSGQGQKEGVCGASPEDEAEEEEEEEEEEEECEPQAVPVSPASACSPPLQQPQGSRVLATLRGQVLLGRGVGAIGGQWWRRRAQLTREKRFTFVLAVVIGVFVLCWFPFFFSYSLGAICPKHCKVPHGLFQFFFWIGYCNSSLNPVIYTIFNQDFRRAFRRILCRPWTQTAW

[38] = system: Tyrosine-protein kinase ABL1 (Homo sapiens), P00519 [H396P]; settings: Compound concentration 1000.0 nM
[39] = molecular target: Serine/threonine-protein kinase Nek11 (Homo sapiens) (UniProt Q8NG66); settings: Compound concentration 1000.0 nM
Sequence of Serine/threonine-protein kinase Nek11 (Homo sapiens) (Q8NG66 whole entry): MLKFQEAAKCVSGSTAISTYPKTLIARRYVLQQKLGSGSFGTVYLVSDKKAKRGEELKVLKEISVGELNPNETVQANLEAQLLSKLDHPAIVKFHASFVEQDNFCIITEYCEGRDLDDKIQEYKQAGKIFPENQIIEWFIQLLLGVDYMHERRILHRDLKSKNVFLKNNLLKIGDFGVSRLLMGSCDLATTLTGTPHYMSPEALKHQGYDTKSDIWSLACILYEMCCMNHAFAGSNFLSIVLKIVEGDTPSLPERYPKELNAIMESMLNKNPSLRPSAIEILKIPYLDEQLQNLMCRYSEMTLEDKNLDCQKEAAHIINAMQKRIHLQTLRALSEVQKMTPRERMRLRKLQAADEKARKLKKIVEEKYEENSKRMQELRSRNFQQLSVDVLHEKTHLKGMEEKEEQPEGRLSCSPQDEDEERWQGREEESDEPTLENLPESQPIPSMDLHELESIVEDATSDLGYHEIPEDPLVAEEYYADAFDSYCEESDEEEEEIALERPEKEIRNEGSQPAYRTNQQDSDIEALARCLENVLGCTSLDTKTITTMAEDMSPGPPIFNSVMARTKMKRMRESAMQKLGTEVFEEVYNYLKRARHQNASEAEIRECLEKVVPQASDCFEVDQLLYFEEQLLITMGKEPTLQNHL

Sequence of Inhibitor of nuclear factor kappa-B kinase subunit alpha (Homo sapiens) (O15111 whole entry): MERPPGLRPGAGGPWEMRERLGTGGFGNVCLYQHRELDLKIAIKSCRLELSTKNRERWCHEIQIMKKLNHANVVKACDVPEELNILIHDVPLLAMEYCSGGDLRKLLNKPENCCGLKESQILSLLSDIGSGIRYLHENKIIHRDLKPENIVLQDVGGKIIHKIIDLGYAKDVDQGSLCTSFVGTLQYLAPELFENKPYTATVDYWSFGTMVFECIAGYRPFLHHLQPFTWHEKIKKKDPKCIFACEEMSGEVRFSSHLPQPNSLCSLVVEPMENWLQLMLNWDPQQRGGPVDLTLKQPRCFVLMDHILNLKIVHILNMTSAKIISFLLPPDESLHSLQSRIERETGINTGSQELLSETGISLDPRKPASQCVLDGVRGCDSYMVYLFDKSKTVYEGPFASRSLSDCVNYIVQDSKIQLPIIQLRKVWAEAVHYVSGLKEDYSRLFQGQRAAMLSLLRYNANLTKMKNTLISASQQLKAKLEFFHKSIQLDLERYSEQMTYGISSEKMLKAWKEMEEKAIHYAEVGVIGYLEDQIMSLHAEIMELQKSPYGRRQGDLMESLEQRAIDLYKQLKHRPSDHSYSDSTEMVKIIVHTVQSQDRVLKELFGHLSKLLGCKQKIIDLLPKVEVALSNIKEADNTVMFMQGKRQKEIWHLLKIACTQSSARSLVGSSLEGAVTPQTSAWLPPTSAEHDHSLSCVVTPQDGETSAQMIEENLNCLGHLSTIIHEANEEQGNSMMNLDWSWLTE
Sequence of Protein kinase C iota type (Homo sapiens) (P41743 whole entry): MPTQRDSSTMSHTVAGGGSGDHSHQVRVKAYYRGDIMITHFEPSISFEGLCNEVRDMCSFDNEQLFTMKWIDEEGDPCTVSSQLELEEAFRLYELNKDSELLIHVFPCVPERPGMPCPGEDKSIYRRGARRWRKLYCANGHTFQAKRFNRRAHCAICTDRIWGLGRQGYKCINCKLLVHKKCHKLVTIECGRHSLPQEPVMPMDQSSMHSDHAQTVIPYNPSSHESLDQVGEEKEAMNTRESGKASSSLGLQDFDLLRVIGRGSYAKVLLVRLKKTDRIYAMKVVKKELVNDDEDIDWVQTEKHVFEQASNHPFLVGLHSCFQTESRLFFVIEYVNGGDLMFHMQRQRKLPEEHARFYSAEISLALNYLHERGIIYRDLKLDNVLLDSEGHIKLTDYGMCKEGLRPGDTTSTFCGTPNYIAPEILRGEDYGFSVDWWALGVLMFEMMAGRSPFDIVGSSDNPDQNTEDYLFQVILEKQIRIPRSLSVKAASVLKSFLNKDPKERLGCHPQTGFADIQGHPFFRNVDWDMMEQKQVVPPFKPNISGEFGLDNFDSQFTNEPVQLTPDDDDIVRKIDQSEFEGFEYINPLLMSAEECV
Sequence of G protein-coupled receptor kinase 3 (Homo sapiens) (P35626 whole entry, canonical isoform): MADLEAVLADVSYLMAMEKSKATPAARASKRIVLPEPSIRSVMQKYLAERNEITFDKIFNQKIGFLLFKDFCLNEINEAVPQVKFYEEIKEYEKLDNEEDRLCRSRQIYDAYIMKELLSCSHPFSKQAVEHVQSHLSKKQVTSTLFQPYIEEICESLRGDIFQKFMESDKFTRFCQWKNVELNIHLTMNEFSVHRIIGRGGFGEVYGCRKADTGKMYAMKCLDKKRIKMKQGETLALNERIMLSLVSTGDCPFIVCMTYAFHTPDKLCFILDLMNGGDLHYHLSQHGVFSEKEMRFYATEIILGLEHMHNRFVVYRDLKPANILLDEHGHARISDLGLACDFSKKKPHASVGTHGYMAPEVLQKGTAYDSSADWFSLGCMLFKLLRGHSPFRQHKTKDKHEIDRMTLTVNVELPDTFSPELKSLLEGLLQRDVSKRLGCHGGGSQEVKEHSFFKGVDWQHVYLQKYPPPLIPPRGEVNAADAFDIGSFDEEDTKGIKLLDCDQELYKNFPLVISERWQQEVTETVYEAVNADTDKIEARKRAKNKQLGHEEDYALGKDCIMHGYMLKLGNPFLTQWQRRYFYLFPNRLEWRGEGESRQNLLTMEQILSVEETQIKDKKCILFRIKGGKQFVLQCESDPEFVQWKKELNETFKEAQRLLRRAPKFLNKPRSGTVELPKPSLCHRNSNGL
Sequence of Calcium/calmodulin-dependent protein kinase type II subunit gamma (Homo sapiens) (Q13555 whole entry): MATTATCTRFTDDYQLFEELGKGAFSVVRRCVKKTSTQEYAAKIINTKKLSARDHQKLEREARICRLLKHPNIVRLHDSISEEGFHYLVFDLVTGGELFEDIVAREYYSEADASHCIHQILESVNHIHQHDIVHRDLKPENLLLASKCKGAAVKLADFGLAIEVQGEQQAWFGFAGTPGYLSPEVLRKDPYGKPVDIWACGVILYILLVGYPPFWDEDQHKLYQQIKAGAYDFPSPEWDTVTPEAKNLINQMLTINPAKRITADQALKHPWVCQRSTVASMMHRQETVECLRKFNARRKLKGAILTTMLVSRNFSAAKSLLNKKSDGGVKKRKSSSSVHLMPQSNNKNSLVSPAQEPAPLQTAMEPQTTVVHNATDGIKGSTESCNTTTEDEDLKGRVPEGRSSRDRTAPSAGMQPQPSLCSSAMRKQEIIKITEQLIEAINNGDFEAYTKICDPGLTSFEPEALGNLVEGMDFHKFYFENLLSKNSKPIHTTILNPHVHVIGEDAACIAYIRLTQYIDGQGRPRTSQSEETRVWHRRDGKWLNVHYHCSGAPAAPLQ
Sequence of Ephrin type-B receptor 2 (Homo sapiens) (P29323 whole entry): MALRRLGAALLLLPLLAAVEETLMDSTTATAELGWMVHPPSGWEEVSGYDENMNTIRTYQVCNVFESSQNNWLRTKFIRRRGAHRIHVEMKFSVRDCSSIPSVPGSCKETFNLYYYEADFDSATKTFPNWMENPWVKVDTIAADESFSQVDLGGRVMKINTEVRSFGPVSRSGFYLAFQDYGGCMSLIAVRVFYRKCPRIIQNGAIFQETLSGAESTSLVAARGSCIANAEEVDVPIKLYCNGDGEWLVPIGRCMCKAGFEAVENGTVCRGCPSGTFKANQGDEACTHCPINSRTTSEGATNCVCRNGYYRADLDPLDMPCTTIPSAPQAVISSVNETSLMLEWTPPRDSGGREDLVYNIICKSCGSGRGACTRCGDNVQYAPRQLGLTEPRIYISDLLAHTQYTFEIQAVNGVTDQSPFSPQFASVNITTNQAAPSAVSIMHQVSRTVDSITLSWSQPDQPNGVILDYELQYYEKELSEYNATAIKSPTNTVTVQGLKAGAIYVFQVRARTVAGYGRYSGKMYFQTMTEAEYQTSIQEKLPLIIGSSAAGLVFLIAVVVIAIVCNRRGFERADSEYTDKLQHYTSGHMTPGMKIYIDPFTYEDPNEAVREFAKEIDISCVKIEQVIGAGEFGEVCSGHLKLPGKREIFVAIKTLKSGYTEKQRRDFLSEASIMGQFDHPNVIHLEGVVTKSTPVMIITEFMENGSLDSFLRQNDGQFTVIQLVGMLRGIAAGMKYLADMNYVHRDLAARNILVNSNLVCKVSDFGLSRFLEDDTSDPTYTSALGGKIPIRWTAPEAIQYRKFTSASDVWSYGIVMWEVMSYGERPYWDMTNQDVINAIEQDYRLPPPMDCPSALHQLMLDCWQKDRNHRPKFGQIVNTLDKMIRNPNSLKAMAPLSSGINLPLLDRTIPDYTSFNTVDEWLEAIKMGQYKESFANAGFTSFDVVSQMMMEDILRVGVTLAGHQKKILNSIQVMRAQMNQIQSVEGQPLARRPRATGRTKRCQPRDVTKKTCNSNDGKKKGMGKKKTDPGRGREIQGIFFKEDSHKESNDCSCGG
Sequence of Testis-specific serine/threonine-protein kinase 3 (Homo sapiens) (Q96PN8 whole entry): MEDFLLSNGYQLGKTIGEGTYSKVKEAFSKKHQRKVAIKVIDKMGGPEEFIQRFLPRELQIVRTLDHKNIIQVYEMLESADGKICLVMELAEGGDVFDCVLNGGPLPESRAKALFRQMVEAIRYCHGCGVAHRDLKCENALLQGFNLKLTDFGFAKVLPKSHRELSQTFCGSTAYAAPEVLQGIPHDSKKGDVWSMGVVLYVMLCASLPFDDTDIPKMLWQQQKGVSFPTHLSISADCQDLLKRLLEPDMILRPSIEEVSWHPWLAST
Sequence of Calcium/calmodulin-dependent protein kinase type 1B (Homo sapiens) (Q6P2M8 whole entry): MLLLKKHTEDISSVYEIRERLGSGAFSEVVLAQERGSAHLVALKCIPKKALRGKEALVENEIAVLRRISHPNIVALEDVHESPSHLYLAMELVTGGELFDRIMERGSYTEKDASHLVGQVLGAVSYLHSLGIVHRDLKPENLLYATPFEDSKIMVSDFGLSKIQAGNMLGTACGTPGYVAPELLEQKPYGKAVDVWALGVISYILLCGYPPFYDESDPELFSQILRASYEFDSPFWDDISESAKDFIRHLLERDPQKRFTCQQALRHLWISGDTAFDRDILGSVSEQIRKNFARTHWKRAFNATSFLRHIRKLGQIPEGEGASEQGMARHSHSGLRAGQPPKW

O=C(NCc1ncc(C(F)(F)F)cc1Cl)c1ccc2c(c1)C1(CCS(=O)(=O)CC1)[C@H](C1CC1)N2S(=O)(=O)c1ccc(F)cc1 [BAY-784]
inactive: residual activity [1] 100% | residual activity [2] 82% | residual activity [3] 91% | residual activity [4] 70% | residual activity [5] 100% | residual activity [6] 81% | residual activity [7] 90% | residual activity [8] 74% | residual activity [9] 96% | residual activity [10] 100% | residual activity [11] 100% | residual activity [12] 67% | residual activity [13] 94% | residual activity [14] 100% | residual activity [15] 98% | residual activity [16] 100% | residual activity [17] 100% | residual activity [18] 57% | residual activity [19] 100% | residual activity [20] 63% | residual activity [21] 100% | residual activity [22] 87% | residual activity [23] 100% | residual activity [24] 100% | residual activity [25] 100% | residual activity [26] 100% | residual activity [27] 77% | residual activity [28] 89% | residual activity [29] 99% | residual activity [30] 78% | residual activity [31] 96% | residual activity [32] 82% | residual activity [33] 100% | residual activity [34] 100% | residual activity [35] 99% | residual activity [36] 100% | inhibition [37] 13.5% | residual activity [38] 80% | residual activity [39] 100%

O=C(NCc1ncc(C(F)(F)F)cc1Cl)c1ccc2c(c1)C1(CCS(=O)(=O)CC1)[C@@H](C1CC1)N2S(=O)(=O)c1ccc(F)cc1 [BAY-786]
inactive: residual activity [1] 84% | residual activity [2] 100% | residual activity [3] 96% | residual activity [4] 72% | residual activity [5] 97% | residual activity [6] 100% | residual activity [7] 85% | residual activity [8] 100% | residual activity [9] 84% | residual activity [10] 100% | residual activity [11] 77% | residual activity [12] 67% | residual activity [13] 92% | residual activity [14] 100% | residual activity [15] 82% | residual activity [16] 100% | residual activity [17] 76% | residual activity [18] 72% | residual activity [19] 97% | residual activity [20] 68% | residual activity [21] 100% | residual activity [22] 97% | residual activity [23] 93% | residual activity [24] 89% | residual activity [25] 100% | residual activity [26] 74% | residual activity [27] 84% | residual activity [28] 100% | residual activity [29] 100% | residual activity [30] 78% | residual activity [31] 76% | residual activity [32] 100% | residual activity [33] 84% | residual activity [34] 84% | residual activity [35] 100% | residual activity [36] 100% | inhibition [37] -1.68% | residual activity [38] 83% | residual activity [39] 100%
